# From PubChem BioAssay AID623893 (Vanderbilt Specialized Chemistry Center, 2012)
# Activity calls are given as the source filed them.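 The calls were made as follows: active = fold change in agonist EC50 with compound of 2 or more, a potentiator, or 0.5 or less, a blocker; inactive = fold change strictly between 0.5 and 2.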
# Target: Metabotropic glutamate receptor 7 (Rattus norvegicus) (UniProt P35400)
# Experiment: off-target activity at rat mGlu7, profiling panel, selectivity assay for mGlu4 lead optimization, cell-based, thallium flux, L-AP4 agonist (AID 623893)
# Settings: mGlu7 cells, at 10 µM
# Chain of Metabotropic glutamate receptor 7 (Rattus norvegicus) (P35400 whole entry, looked up): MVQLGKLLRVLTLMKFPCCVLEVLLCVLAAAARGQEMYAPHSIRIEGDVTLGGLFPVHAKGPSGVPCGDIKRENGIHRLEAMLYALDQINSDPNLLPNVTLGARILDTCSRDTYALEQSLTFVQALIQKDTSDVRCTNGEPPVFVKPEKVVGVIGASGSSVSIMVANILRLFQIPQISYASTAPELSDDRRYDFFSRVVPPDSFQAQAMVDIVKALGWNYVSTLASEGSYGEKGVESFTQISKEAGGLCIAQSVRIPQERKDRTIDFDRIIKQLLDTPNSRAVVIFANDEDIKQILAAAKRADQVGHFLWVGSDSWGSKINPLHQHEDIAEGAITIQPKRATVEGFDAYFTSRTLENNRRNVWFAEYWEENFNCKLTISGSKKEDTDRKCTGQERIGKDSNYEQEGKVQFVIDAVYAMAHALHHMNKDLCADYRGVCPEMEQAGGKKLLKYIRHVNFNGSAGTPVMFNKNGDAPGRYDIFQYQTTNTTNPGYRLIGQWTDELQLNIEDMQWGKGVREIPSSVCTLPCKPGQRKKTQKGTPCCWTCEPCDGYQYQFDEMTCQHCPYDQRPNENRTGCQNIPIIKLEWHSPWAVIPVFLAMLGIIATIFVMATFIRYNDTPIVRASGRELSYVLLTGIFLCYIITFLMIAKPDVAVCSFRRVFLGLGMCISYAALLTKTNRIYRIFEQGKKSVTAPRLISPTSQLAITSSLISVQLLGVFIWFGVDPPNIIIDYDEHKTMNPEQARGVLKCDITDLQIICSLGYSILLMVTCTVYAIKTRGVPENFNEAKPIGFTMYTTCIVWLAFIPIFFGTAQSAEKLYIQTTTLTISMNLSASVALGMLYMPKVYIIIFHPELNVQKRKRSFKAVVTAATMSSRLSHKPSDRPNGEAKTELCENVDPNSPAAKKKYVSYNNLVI
structure (smiles),measurement,value
O=C(Nc1cccc(Cl)c1)c1ccccn1,fold shift,1.44 (inactive)
